pIC50: −log10 of the molar value.
Experiments:
[1] = Pharmacokinetics in plasma and brain after single i.p. or oral dose; type: in vivo, male BALB/c mice; settings: for AUCinf / AUClast / Cmax / MRT inf / MRT last / Tmax / AUC(0-inf) / AUC(0-t): male BALB/c mice; for Cmax / MRT inf / MRT last / Tmax / AUC(0-inf) / AUC(0-t): mouse
OPCs from P0 mice = experiment: Survival assay (Casp3+-A2B5+ cells); type: cell-based, mouse; settings: murine P0 OPCs, 1 μM, 2 DIV
Procedure: We isolated OPCs, as previously described. Briefly, a stock papain solution was prepared containing ([…]; Worthington Biochemical), L-cysteine (0.2 mg/ml; Sigma), and EDTA (0.2 mg/ml; Sigma) in Hank’s Balanced Salt Solution (HBSS; Invitrogen) without Ca^2+ and Mg[2]. Then, the cerebral cortices of P0 CD1 mice were dissected out and placed for 5 minutes at 37 °C in a medium containing the stock papain solution in HBSS with Ca^2+ and Mg^2+ (1:10; Invitrogen) in order to easily remove the meninges. Once meninges and choroid plexus were removed, the tissue was enzymatically dissociated for 5 minutes at 37 °C again by using the papain solution (1:10 in HBSS without Ca^2+ and Mg^2+) and the digested tissue was then filtered through a 100 μm nylon mesh strainer (BD Biosciences) and seeded on poly-L-ornithine-coated (Sigma) 75 cm^2 flasks in DMEM medium (Invitrogen) containing 10% foetal bovine serum (FBS; BioWhittaker) and 100 U/mL penicillin, 0.1 mg/mL streptomycin and 0.25 μg/ml Amphotericin B antibiotic antimycotic solution (Sigma). Cultures were maintained at 37 °C and 5% CO2, and the medium was changed every 3 days. […] The resulting enriched oligodendrocyte progenitor cell suspension was counted and seeded. […]

[2] = test system: cerebellar slices demyelinated with LPC; experiment: Ex vivo remyelination in cerebellar slice cultures demyelinated with LPC; type: cell-based, CD1 P7 mice; settings: 5 μM, 3 days post lesion (3DPL)
Procedure: The protocol used was modified from previously described. CD1 P7 mice were decapitated, and their cerebella were dissected into ice-cold HBSS (Invitrogen). 300 μm sagittal slices of cerebellum were cut using a McIllwain tissue chopper, placed on Millicell-CM organotypic culture inserts (3 slices per insert; Millipore) in a medium containing HBSS:BME: horse serum (1:2:1, Invitrogen), 28 mM D (+) - glucose (Normapur), […] L-Glutamine (Invitrogen) and 100 U/mL penicillin, 0.1 mg/mL streptomycin and 0.25 μg/ml Amphotericin B antibiotic anti-mycotic solution (Sigma) and maintained at 5% CO2 and 37 °C. Medium was changed every two days, and after 7 days in culture, demyelination was induced by addition of 0.5 mg/ml LPC (Sigma) to the medium for 15 h. After that, slices were treated with fresh medium containing PDE7-GSK3 or GSK3 inhibitors (VP1.15, VP3.15 or TDZD8; 5 μM). Cultures were maintained for 1 or 3 days post lesion (DPL), and then fixed for 40 minutes and immunostained with anti-MBP antibodies (myelin basic protein –as a marker of myelin; 1:200; Serotec; Cat#MCA4095) and anti-neurofilament antibody (as a marker of axons; 1:200; Abcam; Cat#ab8135). Fluorescence images were taken on a confocal SP5 resonant scanner (Leica Microsystems) at 1μm intervals in white matter areas at x40 magnification. The photographs were merged and co-localisation of both markers was quantified with Image J software using the colocalization highlighter plugin. This measurement was related to the area occupied by axons (neurofilament staining) and normalized with control values showing the data as the mean normalized myelination index ± SEM. Quantification was made in at least three independent experiments.

PDE7 = test system: PDE7; set-up: method as in PMID 24437940; settings: read-out: PDE7 inhibition IC50; cited from earlier work
GSK-3 = test system: GSK-3; set-up: method as in PMID 24437940; settings: read-out: GSK-3 inhibition IC50; cited from earlier work
[3] = test system: spinal cord injury models; set-up: method as in PMID 21297958, PMID 23077723; settings: spinal cord injury models (as well as EAE); cited from earlier work
[4] = i.p. 10 mg.kg^−1 single dose, brain
[5] = ip, i.p. 10 mg.kg^−1 single dose, brain
[6] = ip, i.p. 10 mg.kg^−1 single dose, plasma
[7] = po, p.o. 50 mg.kg^−1 single dose, brain
[8] = po, p.o. 50 mg.kg^−1 single dose, plasma
[9] = p.o. 50 mg.kg^−1 single dose, brain

c1ccc(-c2n/c(=N/CCN3CCOCC3)sn2-c2ccccc2)cc1 [VP3.15]
AUCinf [1, 4]: 1506.00 ng·h/g
AUClast [1, 4]: 1489.25 ng·h/g
oral bioavailability and brain penetration ([1]; mice, after oral and i.p. administration): shows oral bioavailability and brain penetration
Cmax [1, 5]: 1980 ng/g
MRT inf [1, 5]: 1.25 h
MRT last [1, 5]: 1.21 h
Tmax [1, 5]: 0.08 h
AUC(0-inf) [1, 6]: 2000 ng·h/mL
AUC(0-t) [1, 6]: 1960 ng·h/mL
Cmax [1, 6]: 1990 ng/mL
MRT inf [1, 6]: 0.91 h
MRT last [1, 6]: 0.82 h
Tmax [1, 6]: 0.25 h
Cmax [1, 7]: 497 ng/g
MRT inf [1, 7]: 4.01 h
MRT last [1, 7]: 2.07 h
Tmax [1, 7]: 0.5 h
AUC(0-inf) [1, 8]: 2380 ng·h/mL
AUC(0-t) [1, 8]: 2290 ng·h/mL
Cmax [1, 8]: 881 ng/mL
MRT inf [1, 8]: 1.86 h
MRT last [1, 8]: 1.64 h
Tmax [1, 8]: 1 h
AUCinf [1, 9]: 1794.28 ng·h/g
AUClast [1, 9]: 1375.08 ng·h/g
OPC survival (Casp3+-A2B5+ apoptotic cells) (OPCs from P0 mice): without affecting
remyelination (normalized myelination index) [2]: increased
pIC50 (PDE7): 5.80
pIC50 (GSK-3): 6.06
immunomodulatory effect [3]: immunomodulatory effect

From PMC5335257, “Promoting in vivo remyelination with small molecules: a neuroreparative pharmacological treatment for Multiple Sclerosis” (Scientific Reports, 2017)
